Data on three compounds can be found in paper PMC9785474, “Solubility Enhancement of Dihydroquercetin via “Green” Phase Modification” (International Journal of Molecular Sciences, 2022).

Values after ≈ are worked out from the molar mass of the structure shown.

The nature of data set [1]: Solubility by European Pharmacopeia (EP) express method. Type of data set: physicochemical. The settings on record: for solubility: thermodynamic from solid; for solubility / Term by EP: water solubility, ambient conditions, European Pharmacopeia 10.0. Here is the method:
Solubility is one of the key parameters to describe the biopharmaceutical characteristics of active pharmaceutical ingredients. There are different ways of solubility determination. One of them is an express method widely used in pharmaceutical science, described in European Pharmacopeia (EP). More accurate data may be obtained by the sedimentation method.
The analysis was performed in accordance with the pharmacopoeial monograph of European Pharmacopeia 10.0 [52] at ambient conditions.

The nature of data set [2]: Solubility by sedimentation method (centrifugation, UV spectrometry). It counts as physicochemical. As to conditions: for solubility: water, thermodynamic from solid. The method, then: Solubility is one of the key parameters to describe the biopharmaceutical characteristics of active pharmaceutical ingredients. There are different ways of solubility determination. One of them is an express method widely used in pharmaceutical science, described in European Pharmacopeia (EP). More accurate data may be obtained by the sedimentation method. […] To determine the concentration of DHQ solutions, UV spectrometry was applied. Three hundred mg of each DHQ sample were dissolved in 10.0 mL of […] and centrifuged for 5 min at 10,000 rpm by centrifuge MiniSpin® (Eppendorf AG, Hamburg, Germany). The analyzed solutions were prepared by dilution of the supernatant 50 μL up to 25 mL with distilled water. The UV spectra were recorded with a Cary-100 (Varian, Palo Alto, CA, USA). The accurate concentrations were calculated using a calibration curve.

Data set [3] is described as follows: ABTS/PP antioxidant capacity assay. As to conditions: for Antioxidant Capacity, n-Value: ABTS•+ radicals scavenged by one molecule of antioxidant, 6 min, 730 nm; for Antioxidant Capacity, n-Value / Antioxidant Capacity, ΔA: mean ± SD; for Antioxidant Capacity, ΔA: absorbance decrease at 730 nm, 6 min incubation at 32 °C, corrected for self-bleaching; for Changes of ΔA and n-values from DHQR (paired Student's t-test): compared with DHQR. Here is the method: To compare the antioxidant capacity of DHQ in different forms, we employed the ABTS/PP assay, as reported by Re et al., with some modifications. In brief, an antioxidant was added to the pre-generated stock solution of radical-cation ABTS^•+, and then, after 6 min incubation in the dark place at 32 °C, the decrease in the absorption at 730 nm was calculated. ABTS^•+ self-bleaching after 6 min was measured in the same conditions without the addition of antioxidants. The initial ABTS^•+ absorbance in the incubation mix before the addition of an antioxidant was adjusted to […]. The stock solution of the radical-cation ABTS^•+ was prepared by the incubation of the ABTS with PP at final concentrations of 7 mM and 2.5 mM, respectively, during 12–16 h in the dark. UV-Vis spectra were obtained on a Cary 100 (Varian, Palo Alto, CA, USA).
The absorbance decrease ∆A at 730 nm due to inhibition of radical-cation ABTS^•+ was calculated as follows (5):∆A = A0 − A1 − ∆Asb,(5) where A0 and A1 are the ABTS^•+ absorbances at 730 nm, pathlength 1 cm, before and 6 min after the antioxidant addition, respectively. The self-bleaching of radical-cation ABTS^•+ ∆Asb was calculated as the difference between the ABTS^•+ absorbance right after the addition of stock ABTS^•+ to PBS to give absorbance 1.0 ± 0.1 and 6 min later.
The amount of ABTS^•+ radicals scavenged by one molecule of antioxidant (n-value) was calculated according to the Equation (6):(6) N=CABTS·+/Cantioxidant=ΔA/ε · Cantioxidant, where CABTS^•+ is the concentration of the scavenged ABTS^•+, ε is the extinction at 730 nm 15,000 L·mol^−1·cm^−1, l is the optical pathlength 1 cm, and Cantioxidant is the concentration of the antioxidant.

[4] abbreviates: 300 mg in 10.0 mL, centrifuged 5 min at 10,000 rpm, UV spectrometry of supernatant, mean ± SD.

Consider `O=C1c2c(O)cc(O)cc2O[C@H](c2ccc(O)c(O)c2)[C@H]1O` [DHQA], for which, in data set [1], the solubility (in general, the concentration that dissolves in the medium under given conditions) is 1000 to 10000 µg/mL (≈ 3.29 to 32.9 mM) and the “Term by EP” value is on record as “slightly soluble”. For the same compound, the “Solubility, By Sedimentation Method” value in data set [2] (setting [4]) was 2140 ± 60 µg/mL (≈ 7.03 mM). Further, in data set [2], the “Increase of solubility compared with DHQR, sedimentation method” value amounted to 3.1 times. In data set [3], the “Antioxidant Capacity, n-Value” was determined as 7.13 ± 0.19; the “Antioxidant Capacity, ΔA” value came to 0.499 ± 0.014; the “Changes of ΔA and n-values from DHQR (paired Student's t-test)” value was “statistically non-significant changes”.

As to `O=C1c2c(O)cc(O)cc2OC(c2ccc(O)c(O)c2)C1O` (stereo not shown) [DHQR, 2-(3,4-dihydroxyphenyl)-3,5,7-trihydroxy-2,3-dihydro-4H-1-benzopyran-4-one, reference compound], in data set [1], the solubility lay within 100 to 1000 µg/mL (≈ 0.329 to 3.29 mM) and the “Term by EP” value was “very slightly soluble”. The compound also yielded a solubility in data set [2] (setting [4]) of 700 ± 20 µg/mL (≈ 2.3 mM). In data set [3], the “Antioxidant Capacity, n-Value” is 7.30 ± 0.24 and the “Antioxidant Capacity, ΔA” value is reported as 0.511 ± 0.017.

For `O=C1c2c(O)cc(O)cc2O[C@H](c2ccc(O)c(O)c2)[C@H]1O` [DHQE], the “Enhancement of water solubility compared with DHQR, EP method” value in data set [1] (compared with DHQR) is reported as “at least 30 fold”. Besides, the “Term by EP” value in data set [1] is reported as “soluble”. Also, the “Increase of solubility compared with DHQR, sedimentation method” value in data set [2] was found to be 4.4 times. This compound also returned a solubility in data set [2] (setting [4]) of 3090 ± 90 µg/mL (≈ 10.2 mM). Besides, in data set [3], the “Antioxidant Capacity, n-Value” stood at 7.19 ± 0.37; the “Antioxidant Capacity, ΔA” value is given as 0.504 ± 0.026; the “Changes of ΔA and n-values from DHQR (paired Student's t-test)” value was “statistically non-significant changes”.
